# Data reported in ChEMBL document CHEMBL1154074, “3D-QSAR with the aid of pharmacophore search and docking-based alignments for farnesyltransferase inhibitors” (Eur J Med Chem, 2009).
# Assay: Inhibition of FTase
row,Compound,pIC50
1,N#Cc1ccc(Cn2cncc2COCc2ccc(C#N)cc2-c2ccc(OC(F)(F)F)cc2)cc1,9.19
2,CCOc1cccc(-c2cc(C#N)ccc2COCc2cncn2Cc2ccc(C#N)nc2)c1,9.24
3,Cn1c(=O)cc(-c2cccc(Cl)c2)c2cc(C(NC=O)c3cncn3Cc3ccc(C#N)cc3)ccc21 (centres undefined),8.68
4,CCOc1ccc(-c2cc(C#N)ccc2COCc2cncn2Cc2ccc(C#N)cc2)cc1,8.9
5,COc1cccc(-c2cc(C#N)ccc2COCc2cncn2Cc2ccc(C#N)nc2)c1,8.82
6,N#Cc1ccc(Cn2cncc2COCc2ccc(C#N)c(-c3cccc4ccccc34)c2)cc1,8.32
7,N#Cc1ccc(Cn2cncc2COCc2ccc(C#N)cc2-c2ccc3c(c2)OCO3)nc1,8.33
8,N#Cc1ccc(COCc2cncn2Cc2ccc(C#N)cc2-c2cccc(Cl)c2)c(-c2cccc(Cl)c2)c1,8
9,CC(C)(C)c1ccc(-c2cc(C#N)ccc2COCc2cncn2Cc2ccc(C#N)cc2)cc1,9.36
10,N#Cc1ccc(Cn2cncc2COCc2ccc(C#N)cc2-c2cccc3c2OCO3)cc1,9.09
11,Cn1c(=O)cc(-c2cccc(Cl)c2)c2cc(C(N)c3cncn3Cc3ccc(C#N)cc3)ccc21 (centres undefined),8.42
12,N#Cc1ccc(COCc2cncn2Cc2ccc(C#N)nc2)c(-c2cccc(Cl)c2)c1,8.52
13,Cn1c(=O)cc(-c2cccc(Cl)c2)c2cc(COCc3cncn3Cc3ccc(C#N)cc3)ccc21,7.05
14,N#Cc1ccc(Cn2cncc2COCc2ccc(C#N)cc2-c2cccc(Cl)c2)nc1,8.77
15,N#Cc1ccc(Cn2cncc2CNCc2ccc(C#N)c(-c3cccc4ccccc34)c2)cc1,8.19
16,CC(=O)Nc1cccc(-c2cc(C#N)ccc2COCc2cncn2Cc2ccc(C#N)cc2)c1,7.89
17,N#Cc1ccc(COCc2cncn2Cc2ccc(Cl)cc2)c(-c2ccc3c(c2)OCO3)c1,8.08
18,N#Cc1cn(Cc2cncn2Cc2ccc3c(c2)OCO3)cc1-c1cccc2ccccc12,8.21
19,COc1cccc(-c2cc(C#N)ccc2COCc2cncn2Cc2ccc(C#N)cn2)c1,8.36
20,CC(=O)c1ccc(-c2cc(C#N)ccc2COCc2cncn2Cc2ccc(C#N)cc2)cc1,8.89
21,CCOc1cccc(-c2cc(C#N)ccc2COCc2cncn2Cc2ccc(Cl)cc2)c1,8.85
22,N#Cc1ccc(Cn2cncc2COCc2ccc(C#N)cc2-c2cccc(OC(F)(F)F)c2)cc1,9.31
23,N#Cc1ccc(OCc2cncn2Cc2ccc(C#N)c(-c3cccc4ccccc34)c2)nc1,9.05
24,N#Cc1ccc(Cn2cncc2COCc2cnc(C#N)cc2-c2cccc(Cl)c2)cc1,8.37
25,N#Cc1ccc(Cn2cncc2COCc2ccc(C#N)cc2-c2ccc(C(F)(F)F)cc2)cc1,8.37
26,N#Cc1ccc(Cn2cncc2Cn2cc(C#N)c(-c3cccc4ccccc34)c2)cc1,9.24

# Next, values leading:
row,pIC50,Compound
1,8.17,N#Cc1ccc(COCc2cncn2Cc2ccc(C#N)cc2-c2cccc3ccccc23)c(-c2ccc3c(c2)OCO3)c1
2,9.02,N#Cc1ccc(COCc2cncn2Cc2ccc(C#N)cc2-c2cccc3ccccc23)cc1
3,9.43,N#Cc1ccc(Cn2cncc2COCc2ccc(C#N)cc2-c2ccc(Cl)c(Cl)c2)cc1
4,8.66,COc1cccc(-c2cc(C#N)ccc2COCc2cncn2Cc2ccc(Cl)cc2)c1
5,8.4,N#Cc1ccc(Cn2cncc2COc2ccc(Cl)cc2-c2cccc(Cl)c2)cc1
6,9.49,N#Cc1ccc(OCc2cncn2Cc2ccc(C#N)c(-c3cccc4ccccc34)c2)cc1
7,9.43,N#Cc1ccc(Cn2cncc2COCc2ccc(C#N)cc2-c2cccc(Cl)c2)cc1
8,9.22,Cc1ccc(-c2cc(C#N)ccc2COCc2cncn2Cc2ccc(C#N)cc2)cc1C
9,8.52,N#Cc1ccc(COCc2cncn2Cc2ccc(C#N)nc2)c(-c2ccc3c(c2)OCO3)c1
10,7.54,Cn1c(=O)cc(-c2cccc(Cl)c2)c2cc(C(=O)c3cncn3Cc3ccc(C#N)cc3)ccc21
11,9.42,N#Cc1ccc(Cn2cncc2COc2ccc(C#N)c(-c3cccc4ccccc34)c2)cc1
12,9.82,N#Cc1ccc(Cn2cncc2Cn2ccc3c(C#N)c(-c4cccc5ccccc45)ccc32)cc1
13,7.33,Cn1c(=O)cc(-c2cccc(Cl)c2)c2cc(C(O)c3cncn3Cc3ccc(C#N)cc3)ccc21 (centres undefined)
14,8.89,N#Cc1ccc(Cn2cncc2COCc2ccc(C#N)cc2-c2cccc3ccccc23)cc1
15,9.21,N#Cc1ccc(Cn2cncc2COCc2ccc(Cl)cc2-c2cccc(Cl)c2)cc1
16,9.04,N#Cc1ccc(Cn2cncc2COCc2ccc(C#N)cc2-c2ccc3ccccc3c2)cc1
17,8.12,COc1ccc(-c2cc(C#N)ccc2COCc2cncn2Cc2ccc(C#N)cc2)cn1
18,7.02,CS(=O)(=O)c1ccc(Cn2cncc2COCc2ccc(C#N)cc2-c2cccc(Cl)c2)cc1
